{
  "source": "patent US11318152B2",
  "about": "“Pharmaceutical agent for improving autism spectrum disorder and mental disease” (MATSUTANI CHEMICAL INDUSTRY CO., LTD., priority 2018, dated 2022)",
  "key": {"[1]": {"system": "paraventricular nucleus (PVN), supraoptic nucleus (SON) and new region of the hypothalamus", "assay": "c-Fos immunostaining of hypothalamus sections after oral administration", "assay_type": "in vivo, C57BL/6J male mice", "settings": "oral 1 or 3 g/kg, fasted mice, 90 minutes after administration, vs saline (FIG. 1A)", "protocol": "(§1) For brain regions that are activated by the oral administration of D-allulose, the expression levels of a neuronal activation marker (c-Fos) were analyzed by the immunostaining method. c-Fos is one of immediate early genes, is a nuclear protein whose expression level increases along with activation of nerves, and thus can be utilized as a neuronal activation marker. C57BL/6J male mice were used as experimental animals and were acclimatized to an environment through preliminary breeding and handling for 1 week or more in individual cages. Saline or D-allulose (1 or 3 g/kg) was orally intragastrically administered to the mice which were fasted for one night, and 90 minutes after the administration, the mice were perfusion fixed in a 4% paraformaldehyde solution and the brains were resected. The organs were postfixed in a 4% paraformaldehyde solution to prepare frozen section specimens. This frozen section specimen was used to immunostain c-Fos. In the case of double immunostaining for oxytocin/vasopressin and c-Fos, the perfusion fixation and the postfixation were conducted in a mixed solution of 4% paraformaldehyde and 0.2% picric acid. Note that in the experiment for analyzing c-FOS expression level (FIG. 1A to FIG. 1D), C57BL/6J male mice of saline group: n=7, 1 g/kg and 3 g/kg D-allulose group: n=5 each were used. […]"}, "oxytocin (OXT) neurons": {"system": "oxytocin (OXT) neurons", "assay": "double immunostaining for oxytocin and c-Fos after oral administration", "assay_type": "in vivo, C57BL/6J male mice", "settings": "oral 3 g/kg, 90 minutes after administration", "protocol": "as §1, with “In” for “Note that in”, “c-Fos positive neurons in the oxytocin (OXT) neurons of paraventricular nucleus (PVN)” for “c-FOS expression level”, “2A and” for “1A to”, “2B),” for “1D),”, “n=4,” for “n=7, 1 g/kg and”, “n=6 were used. In the experiment for analyzing c-Fos positive neurons in the vasopressin (AVP) neurons of paraventricular nucleus (PVN) (FIG. 2C and FIG. 2D), C57BL/6J male mice of saline group: n=4, 3 g/kg D-allulose group: n=6 were used. In the experiment for analyzing c-Fos positive neurons in the oxytocin (OXT) neurons or vasopressin (AVP) neurons of paraventricular nucleus (PVN) (FIG. 3A and FIG. 3B), C57BL/6J male mice of saline group n=4, 3 g/kg D-allulose group: n=6 were used. In the experiment for analyzing c-Fos positive neurons in the oxytocin (OXT) neurons or vasopressin (AVP) neurons of the new region (FIG. 4A and FIG. 4B), C57BL/6J male mice of saline group: n=4, 3 g/kg D-allulose group: n=6” for “n=5 each”"}, "[2]": {"system": "vasopressin (AVP) neurons", "assay": "double immunostaining for vasopressin and c-Fos after oral administration", "assay_type": "in vivo, C57BL/6J male mice", "settings": "oral 3 g/kg, 90 minutes after administration", "protocol": "For brain regions that are activated by the oral administration of D-allulose, the expression levels of a neuronal activation marker (c-Fos) were analyzed by the immunostaining method. c-Fos is one of immediate early genes, is a nuclear protein whose expression level increases along with activation of nerves, and thus can be utilized as a neuronal activation marker. C57BL/6J male mice were used as experimental animals and were acclimatized to an environment through preliminary breeding and handling for 1 week or more in individual cages. Saline or D-allulose (1 or 3 g/kg) was orally intragastrically administered to the mice which were fasted for one night, and 90 minutes after the administration, the mice were perfusion fixed in a 4% paraformaldehyde solution and the brains were resected. The organs were postfixed in a 4% paraformaldehyde solution to prepare frozen section specimens. This frozen section specimen was used to immunostain c-Fos. In the case of double immunostaining for oxytocin/vasopressin and c-Fos, the perfusion fixation and the postfixation were conducted in a mixed solution of 4% paraformaldehyde and 0.2% picric acid. In the experiment for analyzing c-Fos positive neurons in the vasopressin (AVP) neurons of paraventricular nucleus (PVN) (FIG. 2C and FIG. 2D), C57BL/6J male mice of saline group: n=4, 3 g/kg D-allulose group: n=6 were used. In the experiment for analyzing c-Fos positive neurons in the oxytocin (OXT) neurons or vasopressin (AVP) neurons of paraventricular nucleus (PVN) (FIG. 3A and FIG. 3B), C57BL/6J male mice of saline group n=4, 3 g/kg D-allulose group: n=6 were used. In the experiment for analyzing c-Fos positive neurons in the oxytocin (OXT) neurons or vasopressin (AVP) neurons of the new region (FIG. 4A and FIG. 4B), C57BL/6J male mice of saline group: n=4, 3 g/kg D-allulose group: n=6 were used. The obtained results are represented by the average values and the standard errors, the statistical testing used the unpaired t-test, * is described by the P value of less than 5% and ** is described by the P value of less than 1%."}, "oxytocin mRNA": {"system": "oxytocin mRNA", "assay": "oxytocin mRNA expression in hypothalamus, quantitative real-time PCR", "assay_type": "in vivo, C57BL/6J male mice", "settings": "oral 3 g/kg, 2 hours after administration, vs saline-administered group, relative to 36b4 (FIG. 5)", "protocol": "(§2) C57BL/6J male mice (saline group: n=8, D-allulose group: n=9) were used as experimental animals and were acclimatized to an environment through preliminary breeding and handling for 1 week or more in individual cages. Saline or D-allulose (3 g/kg) was orally intragastrically administered to the mice which were fasted for one night, and 2 hours after the administration, the brain's hypothalamus was resected under anesthesia. cDNA was synthesized using the total RNA in hypothalamus as a template. The mRNA expression levels of oxytocin and vasopressin were quantified by the quantitative real-time PCR method. As the housekeeping gene, 36b4 was used. The mRNA expression levels were quantified in accordance with the ΔΔCt method. The target gene expression level in each sample was corrected with the expression level of 36b4 to obtain the relative expression level to 36b4 (ΔCT=the CT value of 36b4−the CT value of the target gene, the relative expression level=2ΔCT).\n(§3) Moreover, the mRNA expression level ratio with the average value of the relative expression level of the saline group being set to 1 (the average value of the relative gene expression level of the D-allulose group to 36b4/the average value of the relative expression level of the saline group to 36b4) was obtained to analyze the change in gene expression level in the administration of D-allulose. […]"}, "vasopressin mRNA": {"system": "vasopressin mRNA", "assay": "vasopressin mRNA expression in hypothalamus, quantitative real-time PCR", "assay_type": "in vivo, C57BL/6J male mice", "settings": "oral 3 g/kg, 2 hours after administration, vs saline-administered group, relative to 36b4 (FIG. 5)", "protocol": "as §2, §3"}, "C57BL/6J male mice [3]": {"system": "C57BL/6J male mice", "assay": "Open field test", "assay_type": "in vivo", "settings": "5 minutes exploration", "description": "The open field test is a test that evaluates spontaneous activity, anxiety-like behavior, and the like in a novel environment by measuring the distance traveled, the number of rearings, the stereotyped behavior, the time spent in the center section, and the like under the novel environment. A mouse is placed in an open field, which is a novel and bright environment for a mouse, and is allowed to freely explore the open field for a certain period of time. The open field has a circular or square shape, and the size, in the case of a square, varies from a side of over 1 m to 30 cm or less. The experiment time is approximately 5 minutes in general, and significant overactivity, dormancy, and the like can be detected through observation for such a short period of time. In addition, a change in the behavior of an animal over time under a novel environment can be observed by recording for a long period of time. Since it is said that mice get accustomed to the open field environment by 30 minutes to approximately 2 hours, the experiment time is often set between 30 minutes to 3 hours. Also, the open field test is often used for analyzing the phenotyping of gene-modified mice and testing the reactivity to pharmaceutical agents. […] The duration of time spent in the center square (9×9 […]) during an exploratory behavior time of 5 minutes was measured."}, "C57BL/6J male mice [4]": {"system": "C57BL/6J male mice", "assay": "Sociality test (social interaction test)", "assay_type": "in vivo", "settings": "10 minutes, vs saline, p<0.05 (FIG. 7B)", "protocol": "The sociality test (also called the social interaction test) is an open field test using 2 individual mice that meet for the first time in order to investigate the sociality. The fundamental procedure of the sociality test is the same as that of the open field test using 1 individual member. However, at the time of starting the behavioral observation, mice are placed at the opposing corners of the field and their moving is recorded as moving picture for 10 minutes. This test is intended to evaluate the sociality of mice by measuring frequencies and times of social behaviors such as sniffing, grooming, attack, and tail-rattling between 2 individual members. C57BL/6J male mice (8-week old) were bred for 1 week under a free-feeding condition with a light-dark cycle of 12 hours and were subjected to the open field and sociality tests. Handling and gavage training was conducted for 4 days before the test. In order to evaluate the sociality with a same-sex mouse, each mouse was placed together with a mouse (new mouse) which it met for the first time in a breeding cage (27×27×20 cm^3) and an accumulation time of the exploratory behavior against the new mouse during an exploratory behavior time of 10 minutes was measured."}},
  "data": [
    {"smiles": "O=C(CO)[C@H](O)[C@H](O)[C@H](O)CO", "note": "[D-allulose]", "values": [
      {"measurement": "c-Fos expression level in the paraventricular nucleus (PVN), the supraoptic nucleus (SON), and a new region of the hypothalamus", "setting": "[1]", "result": "significantly facilitated"},
      {"measurement": "c-Fos expression level in the oxytocin (OXT) neuron of the paraventricular nucleus (PVN)", "setting": "oxytocin (OXT) neurons; vs saline (FIGS. 2A, 2B)", "result": "significantly increased"},
      {"measurement": "activation (c-Fos) of the oxytocin neurons of the supraoptic nucleus (SON)", "setting": "oxytocin (OXT) neurons; vs saline (FIGS. 3A, 3B)", "result": "activated"},
      {"measurement": "activation (c-Fos) of the oxytocin neurons in the new region of the hypothalamus", "setting": "oxytocin (OXT) neurons; vs saline (FIGS. 4A, 4B)", "result": "activated"},
      {"measurement": "activation (c-Fos) of the vasopressin (AVP) neuron of the paraventricular nucleus (PVN)", "setting": "[2]; vs saline (FIGS. 2C, 2D)", "result": "activated"},
      {"measurement": "activation (c-Fos) of the vasopressin neurons of the supraoptic nucleus (SON)", "setting": "[2]; vs saline (FIGS. 3A, 3B)", "result": "activated"},
      {"measurement": "activation (c-Fos) of the vasopressin neurons in the new region of the hypothalamus", "setting": "[2]; vs saline (FIGS. 4A, 4B)", "result": "activated"},
      {"measurement": "expression of the mRNA of oxytocin in the hypothalamus", "setting": "oxytocin mRNA", "result": "significantly enhanced"},
      {"measurement": "expression of the mRNA of vasopressin in the hypothalamus", "setting": "vasopressin mRNA", "result": "significantly enhanced"},
      {"measurement": "anxiety behavior: duration of time spent in the center square", "setting": "C57BL/6J male mice [3]; 1 g/kg oral 30 minutes before test, vs saline (FIG. 6B)", "result": "no significant result"},
      {"measurement": "anxiety behavior: duration of time spent in the center square", "setting": "C57BL/6J male mice [3]; 3 g/kg oral 30 minutes before test, vs saline, p<0.05 (FIG. 6B)", "result": "significantly improved"},
      {"measurement": "social behavior: accumulation time of exploratory behavior against the new mouse", "setting": "C57BL/6J male mice [4]; 1 g/kg oral", "result": "significantly facilitated"},
      {"measurement": "social behavior: accumulation time of exploratory behavior against the new mouse", "setting": "C57BL/6J male mice [4]; 3 g/kg oral", "result": "significantly facilitated"}
    ]}
  ]
}
